According to patent publication US8377876B2, “Pediatric amino acid solution for parenteral nutrition” (Fresenius Kabi Deutschland GmbH, priority 2006, dated 2013):
Peptide text beside a SMILES is read from it.

Assay: Thermal sterilization of 200 g/l alanyl-glutamine solution; degradation products determined after sterilization
Format: physicochemical
Conditions: sterilization at 121° C., 124° C. and 127° C., pH 5 to 6, constant F0 12-12.5
Protocol: The sterilization temperature is in this connection preferably ≧124° C. and particularly preferably ≧127° C. The pH is preferably between 5 and 6.5. It is possible to reduce the holding times for the thermal sterilization on use of higher temperatures. Under the preferred conditions, distinctly smaller amounts of degradation products are found in the sterilized product (example 3).
A solution of 200 g/l alanyl-glutamine was sterilized at temperatures of 121° C., 124° C. and 127° C. The pH was varied between pH 5, pH 5.5 and pH 6. […] The F0 value describes the sterilization efficiency and corresponds to the holding time at 121.11° C. For sterilization at higher temperatures, the holding times were reduced to maintain a constant F0 value. After the sterilization, the amounts of the degradation products of the dipeptide alanyl-glutamine, cyclo-alanyl-glutamine and L-pyro-alanyl-glutamine were determined. Lower values for these degradation products are a direct indication of the stability of the dipeptide during the sterilization.

values for the degradation products (stability of the dipeptide during sterilization): fell at higher temperature
SMILES: C[C@H](N)C(=O)N[C@@H](CCC(N)=O)C(=O)O [alanyl-glutamine, L-Alanyl-L-glutamine] (H-Ala-Gln-OH)
